Test results from patent US4070484A, “Antiallergic composition containing aromatic carboxylic amide derivatives and method of using the same” (Kissei Pharmaceutical Co., Ltd., priority 1973, dated 1978).

What was measured:
[1] = system: homologous passive cutaneous anaphylaxis (antigen-antibody reaction); experiment: Homologous Passive Cutaneous Anaphylaxis in Rats; type: in vivo, rat (Wistar male); conditions: 200 mg/kg orally 2 hours prior to the injection of antigen; for inhibition at 200 mg/kg: Rattus norvegicus, po
Experimental: Wistar male rats weighing 120-150 g were used in this experiment. […]. Normal rats were sensitized passively with dilution of the antibody by means of intradermal injection. After 48 hours of the sensitization, the mixture of antigen (EA) and evens blue was injected intravenously. The animals were killed by a blow on the head 30 minutes after the injection, and then the blue spot resulted from the antigen-antibody reaction was measured photometrically.
A given test compound dissolved in 1 % NaHCO3 solution was administrated in a dose of 200 mg/kg orally 2 hours prior to the injection of antigen, while only the vehicle solution was administered to the control group.
The efficacy of the test compounds to inhibit the homologous passive cutaneous anaphlaxis was compared with the value (%) calculated using the following formula: [formula] wherein A stands for the amount of leaked dye in control group and B for the amount of leaked dye in the group administered with a given test compound.

[2] = Acute Toxicity (LD50) in mice; type: in vivo; conditions: mouse, in vivo, po, mortality on the 8th day
Experimental: The median lethal dose (LD50) of the new aromatic carboxylic acid amide derivatives of this invention were determined in dd-stain male and female mice (6 weeks old) by oral administration and in Wistar strain male and female rats (7 weeks old) by oral and intraperitoneal administration. Each animal selected for the experiment was maintained in an air conditioned room at a temperature of 22° ± 1° C and a relative humidity of 55 ± 5% during the full course of the experiment. All animals were fed compressed pellets (CE-2 type produced by Japan CLEA Co.) and water was available ad libitum by bottle. Five groups of ten animals for each administration route were used.
Since these compounds were isoluble in water, they were suspended in a 0.5% aqueous solution of carboxymethylcellulose at each dosage level. The administrative volume of each agent to 10 g body weight mouse was 0.2 ml for oral administration, while that to 100g body weight of rat was 0.5 ml for intraperitoneal and oral administrations.
The LD50 values were calculated from the mortality on the 8th day by the Litchfield-Wilcoxon's method.

[3] = system: sensitized mesenteric mast cells; experiment: Effect on the Disruption of the Sensitized Mast Cells; type: cell-based, rat; conditions: 10^-5 g/ml, 5 minutes prior to the treatment of antigen
Experimental: Mesenteric mast cells isolated from normal rats were sensitized passively by means of incubation with rat reaginic antibody at 37° C. After termination of the incubation, the specific antigen (DNP-Ascaris) was added to the incubation medium, then these mast cells in mesentery were fixed with formalin and stained with 0.1 % toluidine blue (in acetic acid buffer; pH: 4.6). The number of mast cells disrupted as a consequence of the antigen-antibody reaction were counted under a microscope. The number of the mast cells disrupted were also counted without the addition of the specific antigen.
A given test compound dissolved in 1 % NaHCO3 solution was added to the incubation medium at a concentration of 10^-5 g/ml, 5 minutes prior to the treatment of antigen, while only the vehicle was added to the control group.
The efficacy of the test compounds to inhibit the mast cell disruption was compared with the value (%) calculated using the following formula: [formula] wherein P stands for the percentage of disrupted mast cells in the control group, Q for the percentage of mast cells disrupted spontaneously and R for the percentage of disrupted mast cells in the group treated with a given test compound.

[4] = system: antiallergic action, oral administration to mammalia; experiment: Antiallergic action (general statements); type: in vivo; conditions: general statement
mast cells = conditions: known art; cited from earlier work

O=C(C=Cc1ccccc1Cl)Nc1ccccc1C(=O)O [compound 22, N-(2'-chlorocinnamoyl)-anthranilic acid]
inhibition at 200 mg/kg [1]: 60.2% | LD50 at 192 h [2]: 343 mg/kg

O=C(C=Cc1ccccc1)Nc1ccc(C(=O)O)cc1 [4-(cinnamoylamino)-benzoic acid, reference compound]
inhibition at 200 mg/kg [1]: 7%

O=C(C=Cc1cccc(F)c1)Nc1ccccc1C(=O)O [compound 29, N-(3'-fluorocinnamoyl)-anthranilic acid]
inhibition at 200 mg/kg [1]: 47.5% | LD50 at 192 h [2]: 551 mg/kg

O=C(C=Cc1ccc(O)cc1)Nc1ccccc1C(=O)O [compound 1, N-(4'-hydroxycinnamoyl)-anthranilic acid]
inhibition at 200 mg/kg [1]: 36.7%

N-(4'-bromocinnamoylamino)-benzoic acid
Inhibition (%) [1]: 32.3%

O=C(C=Cc1ccccc1)Nc1ccccc1C(=O)O [N-cinnamoyl-anthranilic acid, reference compound]
inhibition at 200 mg/kg [1]: 16.7%

COc1cccc(C=CC(=O)Nc2cccc(C(=O)O)c2)c1 [compound 15, 3-(3'-methoxycinnamoylamino)-benzoic acid]
inhibition at 200 mg/kg [1]: 45% | Inhibition percentage (mast cell disruption) [3]: 18%

COc1cc(C=CC(=O)Nc2ccccc2C(=O)O)ccc1OC(C)C [compound 56, N-(3'-methoxy-4'-isopropoxycinnamoyl)-anthranilic acid]
inhibition at 200 mg/kg [1]: 47.1%

O=C(C=Cc1ccc(F)cc1)Nc1ccccc1C(=O)O [compound 28, N-(4'-fluorocinnamoyl)-anthranilic acid]
LD50 at 192 h [2]: 481 mg/kg

COc1cccc(C=CC(=O)Nc2ccc(C(=O)O)cc2)c1O [compound 6, 4-(2'-hydroxy-3'-methoxycinnamoylamino)-benzoic acid]
inhibition at 200 mg/kg [1]: 33.5%

Methylenedioxycinnamoylaminobenzoic acid
antiallergic action / pharmacological activity (in words) [4]: strong antiallergic action

cinnamoylaminobenzoic acid [reference compound]
antiallergic action / pharmacological activity (in words) [4]: only very weak antiallergic effect

COc1cc(C=CC(=O)Nc2ccccc2C(=O)O)ccc1OCC(O)CO (stereo not drawn) [N-[3'-methoxy-4'-(2,3-dihydroxypropoxy)-cinnamoyl]-anthranilic acid, reference compound]
inhibition at 200 mg/kg [1]: 9%

O=C(C=Cc1ccc(Cl)cc1)Nc1ccccc1C(=O)O [compound 20, N-(4'-chlorocinnamoyl)-anthranilic acid]
inhibition at 200 mg/kg [1]: 69.4% | LD50 at 192 h [2]: 551 mg/kg

OCC(O)COc1ccc(Cl)cc1 (stereo not drawn) [Chlorphenesin, reference compound]
inhibition of mast cell disruption (in words) (mast cells): inhibitor of mast cell disruption | inhibition at 200 mg/kg [1]: 36.7%

COc1ccc(CCC(=O)Nc2ccccc2C(=O)O)cc1OC [compound 67, N-(3',4'-dimethoxylhydrocinnamoyl)-anthranilic acid]
inhibition at 200 mg/kg [1]: 55.4%

O=C(C=Cc1cccc(Cl)c1)Nc1ccccc1C(=O)O [N-(3'-chlorocinnamoyl)-anthranilic acid]
LD50 at 192 h [2]: 700 mg/kg

COc1cc(C=CC(=O)Nc2ccccc2C(=O)O)ccc1OCC(=O)O [N-(3'-methoxy-4'-carboxylmethoxycinnamoyl)-anthranilic acid, reference compound]
inhibition at 200 mg/kg [1]: 0%

COc1cccc(C=CC(=O)Nc2ccccc2C(=O)O)c1OC [compound 31, N-(2',3'-dimethoxycinnamoyl)-anthranilic acid]
inhibition at 200 mg/kg [1]: 56.8%

CCCOc1ccc(C=CC(=O)Nc2ccccc2C(=O)O)cc1OC [compound 54, N-(3'-methoxy-4'-n-propoxycinnamoyl)-anthranilic acid]
inhibition at 200 mg/kg [1]: 52.2% | Inhibition percentage (mast cell disruption) [3]: 37%

COc1ccc(C(C)=CC(=O)Nc2ccccc2C(=O)O)cc1OC [N-(3',4'-dimethoxy-β-methylcinnamoyl)-anthranilic acid]
inhibition at 200 mg/kg [1]: 66.2% | Inhibition percentage (mast cell disruption) [3]: 45%

O=C(C=Cc1ccccc1)Nc1cccc(C(=O)O)c1 [3-(cinnamoylamino)-benzoic acid, reference compound]
inhibition at 200 mg/kg [1]: 10%

COc1cc(OC)c(OC)cc1C=CC(=O)Nc1ccccc1C(=O)O [compound 52, N-(2',4',5'-trimethoxycinnamoyl)-anthranilic acid]
inhibition at 200 mg/kg [1]: 56.8%

COc1cccc(C=CC(=O)Nc2cccc(C(=O)O)c2)c1OC [compound 60, 3-(2',3'-dimethoxycinnamoylamino)-benzoic acid]
inhibition at 200 mg/kg [1]: 41.1%

O=C(C=Cc1ccccc1F)Nc1ccccc1C(=O)O [compound 30, N-(2'-fluorocinnamoyl)-anthranilic acid]
LD50 at 192 h [2]: 321 mg/kg

Cc1ccc(C=CC(=O)Nc2ccccc2C(=O)O)cc1 [compound 42, N-(4'-methylcinnamoyl)-anthracilic acid]
inhibition at 200 mg/kg [1]: 54%
